Data: patent EP3800188A1, “SUBSTITUTED PYRAZOLOPYRIMIDINES AS IRAK4 INHIBITORS” (Bayer AG, priority 2019, dated 2021)

Biological target: T1, human IRAK4 (Homo sapiens, UniProt Q9NWZ3)
T1 construct: GST (N); made in house; host or cells: baculovirus-infected Hi5 (BTI-TN-5B1-4) insect cells
T1 sequence (Q9NWZ3 1-460): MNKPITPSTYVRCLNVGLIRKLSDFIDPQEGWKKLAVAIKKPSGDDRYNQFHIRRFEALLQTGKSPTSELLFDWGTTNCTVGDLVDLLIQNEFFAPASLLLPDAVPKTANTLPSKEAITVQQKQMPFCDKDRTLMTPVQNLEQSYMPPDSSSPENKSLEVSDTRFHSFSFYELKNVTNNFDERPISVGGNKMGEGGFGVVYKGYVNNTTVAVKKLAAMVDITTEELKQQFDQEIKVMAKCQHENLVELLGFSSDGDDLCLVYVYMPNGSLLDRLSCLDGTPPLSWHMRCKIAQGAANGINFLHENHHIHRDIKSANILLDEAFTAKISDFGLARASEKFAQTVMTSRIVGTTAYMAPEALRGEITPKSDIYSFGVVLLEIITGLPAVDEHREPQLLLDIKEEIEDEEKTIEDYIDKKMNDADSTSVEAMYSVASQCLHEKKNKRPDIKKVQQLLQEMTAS
Assay: Human IRAK4 kinase activity inhibition assay (IRAK4 TR-FRET assay)
Assay type: biochemical
Conditions: 1 mM ATP, GST-human IRAK4, average or median values
Method: The IRAK4-inhibitory activity of the inventive substances was measured in the IRAK4 TR-FRET assay (TR-FRET = Time Resolved Fluorescence Resonance Energy Transfer) described hereinafter.
Recombinant fusion protein from N-terminal GST (glutathione S-transferase) and human IRAK4, expressed in baculovirus-infected insect cells (Hi5, BTI-TN-5B1-4, cell line purchased from Invitrogen, catalogue No. B855-02) and purified via affinity chromatography, was used as enzyme. The substrate used for the kinase reaction was the biotinylated peptide biotin-Ahx-[…] (C-terminus in amide form) which can be purchased, for example, from Biosyntan GmbH (Berlin-Buch). For the assay, 11 different concentrations in the range from 20 µM to 0.073 nM were prepared from a 2 mM DMSO solution of the test substance. 50 nl of the respective 100fold concentrated test compound solutions in DMSO were pipetted into a black low-volume 384-well microtitre plate or a black 1536-well microtiter plate (both Greiner Bio-One, Frickenhausen, Germany), 2 µl of a solution of IRAK4 in assay buffer [50 mM HEPES pH 7.5, 5mM MgCl2, 1.0 mM dithiothreitol, 30 µM activated sodium orthovanadate, 0.1% (w/v) of bovine gamma-globulin (BGG) 0.04% (v/v) nonidet-P40 (Sigma)] were added and the mixture was incubated for 15 min to allow prebinding of the substances to the enzyme prior to the kinase reaction. […] The concentration of the IRAK4 was adjusted to the respective activity of the enzyme and set such that the assay was carried out in the linear range. Typical concentrations were in the order of about 0.2 nM. The reaction was stopped by addition of 5 µl of a solution of TR-FRET detection reagents [0.1 µM streptavidin-XL665 (Cisbio Bioassays; France, catalogue No. 610SAXLG)] and 1.5 nM anti-phosphoserine antibody [Merck Millipore, "STK Antibody", catalogue No. 35-002] and 0.6 nM LANCE EU-W1024-labelled anti-mouse-IgG antibody (Perkin-Elmer, product No. AD0077; alternatively, it is possible to use a terbium cryptate-labelled anti-mouse-IgG antibody from Cisbio Bioassays) in aqueous EDTA solution (100 mM EDTA, 0.4 % [w/v] bovine serum albumin [BSA] in 25 mM HEPES pH 7.5). The resulting mixture was incubated at 22°C for 1 h to allow formation of a complex of the biotinylated phosphorylated substrate and the detection reagents. The amount of the phosphorylated substrate was then evaluated by measuring the resonance energy transfer from europium chelate-labelled anti-mouse-IgG antibody to streptavidin-XL665. To this end, the fluorescence emissions at 620 nm and 665 nm were measured after excitation at 350 nm in a TR-FRET measuring instrument, for example a Rubystar (BMG Labtechnologies, Offenburg, Germany) or a Viewlux (Perkin-Elmer). The ratio of the emissions at 665 nm and 622 nm was taken as a measure of the amount of phosphorylated substrate. The data were normalized (enzyme reaction without test substance = 0% inhibition; all other assay components but no enzyme = 100% inhibition).

NC1CCN(c2nc(N[C@H]3C[C@H](O)C3)nc3c2cnn3-c2cccc(C(F)(F)F)c2)CC1(F)F (mixture of isomers) [Example I-104, trans-3-({4-[(4RS)-4-amino-3,3-difluoropiperidin-1-yl]-1-[3-(trifluoromethyl)phenyl]-1H-pyrazolo[3,4-d]pyrimidin-6-yl}amino)cyclobutanol]
IC50: 178 nM

NC1CCN(c2nc(NC3CCS(=O)(=O)CC3)nc3c2cnn3-c2cccc(C(F)(F)F)c2)CC1(F)F (racemic) [Example I-105, 4-[(4RS)-4-amino-3,3-difluoropiperidin-1-yl]-N-(1,1-dioxidotetrahydro-2H-thiopyran-4-yl)-1-[3-(trifluoromethyl)phenyl]-1H-pyrazolo[3,4-d]pyrimidin-6-amine]
IC50: 280 nM

CC(C)(O)C1CCN(c2nc(N[C@@H]3CNC[C@H]3F)nc3c2cnn3-c2cccc(C(F)(F)F)c2)CC1 (relative stereo) [Example I-65, 2-[1-(6-{[rel-(3R,4R)-4-fluoropyrrolidin-3-yl]amino}-1-[3-(trifluoromethyl)phenyl]-1H-pyrazolo[3,4-d]pyrimidin-4-yl)piperidin-4-yl]propan-2-ol]
IC50: 15.6 nM

O[C@H]1COC[C@H]1Nc1nc(N2CC(N3CCOCC3)C2)c2cnn(-c3cccc(C(F)(F)F)c3)c2n1 (relative stereo) [Example I-70, rel-(3R,4R)-4-({4-[3-(morpholin-4-yl)azetidin-1-yl]-1-[3-(trifluoromethyl)phenyl]-1H-pyrazolo[3,4-d]pyrimidin-6-yl}amino)tetrahydrofuran-3-ol]
IC50: 25 nM

O[C@@H]1CC[C@@H]1Nc1nc(N2CC(N3CCOCC3)C2)c2cnn(-c3cccc(C(F)(F)F)c3)c2n1 (relative stereo) [Example I-73, rel-(1R,2S)-2-({4-[3-(morpholin-4-yl)azetidin-1-yl]-1-[3-(trifluoromethyl)phenyl]-1H-pyrazolo[3,4-d]pyrimidin-6-yl}amino)cyclobutanol]
IC50: 28 nM

O[C@@H]1CC[C@H]1Nc1nc(N2CC(N3CCOCC3)C2)c2cnn(-c3cccc(C(F)(F)F)c3)c2n1 (relative stereo) [Example I-75, rel-(1R,2R)-2-({4-[3-(morpholin-4-yl)azetidin-1-yl]-1-[3-(trifluoromethyl)phenyl]-1H-pyrazolo[3,4-d]pyrimidin-6-yl}amino)cyclobutanol]
IC50: 14 nM

CS(=O)(=O)[C@H]1C[C@H](Nc2nc(N3C[C@@H](O)[C@H](F)C3)c3cnn(-c4cccc(C(F)F)c4)c3n2)C1 (relative stereo) [II-16-1, rel-(3R,4R)-1-(1-[3-(difluoromethyl)phenyl]-6-{[trans-3-(methylsulfonyl)cyclobutyl]-amino)-1H-pyrazolo[3,4-d]pyrimidin-4-yl)-4-fluoropyrrolidin-3-ol]
IC50: 1.36 nM

C[C@H]1CN(c2nc(N[C@H]3C[C@H](S(C)(=O)=O)C3)nc3c2cnn3-c2cccc(C(F)F)c2)C[C@@H]1O (single isomer, unassigned) [II-17-3, (3R*,4S*)-1-(1-[3-(difluoromethyl)phenyl]-6-{[trans-3-(methylsulfonyl)cyclobutyl]amino}-1H-pyrazolo[3,4-d]pyrimidin-4-yl)-4-methylpyrrolidin-3-ol]
IC50: 4.17 nM

CC(C)(O)C1CCN(c2nc(NC3CCS(=O)(=O)C3)nc3c2cnn3-c2cccc(C(F)(F)F)c2)CC1 (single isomer, unassigned; (-)) [Example I-4-3, (-)-2-(1-{6-[(1,1-dioxidotetrahydrothiophen-3-yl)amino]-1-[3-(trifluoromethyl)phenyl]-1H-pyrazolo[3,4-d]pyrimidin-4-yl}piperidin-4-yl)propan-2-ol]
IC50: 68.5 nM

O=C1C[C@@H](Nc2nc(N3CC(N4CCOCC4)C3)c3cnn(-c4cccc(C(F)(F)F)c4)c3n2)CN1 [Example I-1-2, (4R)-4-({4-[3-(morpholin-4-yl)azetidin-1-yl]-1-[3-(trifluoromethyl)phenyl]-1H-pyrazolo-[3,4-d]pyrimidin-6-yl}amino)pyrrolidin-2-one]
IC50: 84.5 nM

CC(C)(O)C1CCN(c2nc(N[C@H]3CNC(=O)C3)nc3c2cnn3-c2cccc(C(F)(F)F)c2)CC1 [Example I-2-2, (4R)-4-({4-[4-(2-hydroxypropan-2-yl)piperidin-1-yl]-1-[3-(trifluoromethyl)phenyl]-1H-pyrazolo[3,4-d]pyrimidin-6-yl}amino)pyrrolidin-2-one]
IC50: 31.4 nM

CC(C)(O)C1CCN(c2nc(NC3CNC(=O)C3)nc3c2cnn3-c2cccc(C(F)(F)F)c2)CC1 (stereo not shown) [Example I-2-3, 4-({4-[4-(2-hydroxypropan-2-yl)piperidin-1-yl]-1-[3-(trifluoromethyl)phenyl]-1H-pyrazolo[3,4-d]pyrimidin-6-yl}amino)pyrrolidin-2-one]
IC50: 9.69 nM

CCC1(O)CN(c2nc(N[C@H]3CNC(=O)C3)nc3c2cnn3-c2cccc(C(F)(F)F)c2)C1 [Example I-3-2, (4R)-4-({4-(3-ethyl-3-hydroxyazetidin-1-yl)-1-[3-(trifluoromethyl)phenyl]-1H-pyrazolo[3,4-d]pyrimidin-6-yl}amino)pyrrolidin-2-one]
IC50: 167 nM

CC(C)(O)C1CCN(c2nc(NC3CCS(=O)(=O)C3)nc3c2cnn3-c2cccc(C(F)(F)F)c2)CC1 (stereo not shown) [Example I-4-1, 2-(1-{6-[(1,1-dioxidotetrahydrothiophen-3-yl)amino]-1-[3-(trifluoromethyl)phenyl]-1H-pyrazolo[3,4-d]pyrimidin-4-yl}piperidin-4-yl)propan-2-ol]
IC50: 12.2 nM

CC(C)(O)C1CCN(c2nc(NC3CC(=O)NC3(C)C)nc3c2cnn3-c2cccc(C(F)(F)F)c2)CC1 (stereo not shown) [Example I-6, 4-({4-[4-(2-hydroxypropan-2-yl)piperidin-1-yl]-1-[3-(trifluoromethyl)phenyl]-1H-pyrazolo-[3,4-d]pyrimidin-6-yl}amino)-5,5-dimethylpyrrolidin-2-one]
IC50: 76.8 nM

CC(C)(O)C1CCN(c2nc(N[C@@H]3CCC(=O)NC3)nc3c2cnn3-c2cccc(C(F)(F)F)c2)CC1 [Example I-7-1, (5R)-5-({4-[4-(2-hydroxypropan-2-yl)piperidin-1-yl]-1-[3-(trifluoromethyl)phenyl]-1H-pyrazolo[3,4-d]pyrimidin-6-yl}amino)piperidin-2-one]
IC50: 11.4 nM

CC(C)(O)C1CCN(c2nc(N[C@H]3CCC(=O)NC3)nc3c2cnn3-c2cccc(C(F)(F)F)c2)CC1 [Example I-7-2, (5S)-5-({4-[4-(2-hydroxypropan-2-yl)piperidin-1-yl]-1-[3-(trifluoromethyl)phenyl]-1H-pyrazolo[3,4-d]pyrimidin-6-yl}amino)piperidin-2-one]
IC50: 33.8 nM

CN1CC(Nc2nc(N3CCC(C(C)(C)O)CC3)c3cnn(-c4cccc(C(F)(F)F)c4)c3n2)CC1=O (stereo not shown) [Example I-8, 4-({4-[4-(2-hydroxypropan-2-yl)piperidin-1-yl]-1-[3-(trifluoromethyl)phenyl]-1H-pyrazolo[3,4-d]pyrimidin-6-yl}amino)-1-methylpyrrolidin-2-one]
IC50: 41.4 nM

CN1CC[C@@H](Nc2nc(N3CCC(C(C)(C)O)CC3)c3cnn(-c4cccc(C(F)(F)F)c4)c3n2)C1=O [Example I-9, (3R)-3-({4-[4-(2-hydroxypropan-2-yl)piperidin-1-yl]-1-[3-(trifluoromethyl)phenyl]-1H-pyrazolo[3,4-d]pyrimidin-6-yl}amino)-1-methylpyrrolidin-2-one]
IC50: 59.5 nM
